According to ChEMBL document CHEMBL1201862, “PubChem BioAssay data set” (2004):
The source made the active and inactive calls.

Legend:
[1] = nonselective inhibitors of cellular cAMP signaling, dose response, counter-screen for MC4R biased antagonist project, cell-based, TR-FRET cAMP detection (AID 602305); format: functional;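 note: U2OS cells stimulated with forskolin near its EC80 as the cAMP inducer; potency is for inhibition of forskolin-stimulated cAMP signaling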
[2] = molecular target: T1, Melanocortin receptor 4 (Homo sapiens, UniProt P32245); assay: MC4R antagonist potency on cAMP, dose response, cell-based, TR-FRET, biased antagonists (AID 602298); format: functional;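 note: antagonist potency against agonist-stimulated cAMP production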
[3] = molecular target: T2, Insulin-degrading enzyme (Homo sapiens, UniProt P14735); assay: activators of recombinant IDE enzyme, dose response, counter-screen for IDE activator project, biochemical, fluorescence polarization (AID 588681)
T2 sequence (P14735 whole entry): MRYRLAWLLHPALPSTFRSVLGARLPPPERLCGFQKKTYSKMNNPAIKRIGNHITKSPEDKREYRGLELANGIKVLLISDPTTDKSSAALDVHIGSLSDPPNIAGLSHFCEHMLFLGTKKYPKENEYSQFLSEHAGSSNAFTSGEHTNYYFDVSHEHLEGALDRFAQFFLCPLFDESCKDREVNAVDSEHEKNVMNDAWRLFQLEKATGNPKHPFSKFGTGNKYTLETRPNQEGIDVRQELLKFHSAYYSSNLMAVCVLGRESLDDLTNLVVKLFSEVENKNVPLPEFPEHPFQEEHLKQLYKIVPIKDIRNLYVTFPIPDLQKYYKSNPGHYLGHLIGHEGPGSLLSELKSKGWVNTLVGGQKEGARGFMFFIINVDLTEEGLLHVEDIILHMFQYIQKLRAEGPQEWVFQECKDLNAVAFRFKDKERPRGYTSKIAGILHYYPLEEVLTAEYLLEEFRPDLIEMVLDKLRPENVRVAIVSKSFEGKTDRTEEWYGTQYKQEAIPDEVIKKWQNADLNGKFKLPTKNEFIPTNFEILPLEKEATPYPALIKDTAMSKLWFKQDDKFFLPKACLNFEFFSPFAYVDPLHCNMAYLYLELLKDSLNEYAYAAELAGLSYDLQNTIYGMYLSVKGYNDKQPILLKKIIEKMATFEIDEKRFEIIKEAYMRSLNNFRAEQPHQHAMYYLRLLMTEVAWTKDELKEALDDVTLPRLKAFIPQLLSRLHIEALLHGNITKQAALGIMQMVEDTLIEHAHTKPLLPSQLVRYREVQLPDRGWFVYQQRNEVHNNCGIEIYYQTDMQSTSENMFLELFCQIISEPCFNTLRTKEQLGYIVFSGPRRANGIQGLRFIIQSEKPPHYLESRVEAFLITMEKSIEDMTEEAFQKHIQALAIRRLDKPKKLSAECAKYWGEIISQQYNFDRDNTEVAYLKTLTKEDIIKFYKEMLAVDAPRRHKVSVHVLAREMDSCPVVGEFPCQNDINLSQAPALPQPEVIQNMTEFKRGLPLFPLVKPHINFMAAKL

[4] = molecular target: T2, Insulin-degrading enzyme; assay: activators of endogenous IDE in HEK cells, dose response, cell-based, fluorescence polarization (AID 588439); format: functional
[5] = test system: HEK293; assay: HEK cell cytotoxicity by LDH release, dose response, cytotoxicity control for IDE activator project, fluorescence, HEK cells (AID 588440); format: functional, cell-based; details: Homo sapiens;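 note: cytotoxicity by LDH release measuring loss of membrane integrity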
[6] = test system: HEK293; assay: optical interference in Abeta FP readout, dose response, artefact control for IDE activator project, biochemical, fluorescence polarization (AID 588442); format: functional, cell-based; details: Homo sapiens
[7] = molecular target: T3, Sentrin-specific protease 6 (Homo sapiens, UniProt Q9GZR1); assay: SENP6 protease inhibitors, SAR follow-up, biochemical, luminescence, set 2 (AID 588598); format: functional
T3 sequence (Q9GZR1 whole entry): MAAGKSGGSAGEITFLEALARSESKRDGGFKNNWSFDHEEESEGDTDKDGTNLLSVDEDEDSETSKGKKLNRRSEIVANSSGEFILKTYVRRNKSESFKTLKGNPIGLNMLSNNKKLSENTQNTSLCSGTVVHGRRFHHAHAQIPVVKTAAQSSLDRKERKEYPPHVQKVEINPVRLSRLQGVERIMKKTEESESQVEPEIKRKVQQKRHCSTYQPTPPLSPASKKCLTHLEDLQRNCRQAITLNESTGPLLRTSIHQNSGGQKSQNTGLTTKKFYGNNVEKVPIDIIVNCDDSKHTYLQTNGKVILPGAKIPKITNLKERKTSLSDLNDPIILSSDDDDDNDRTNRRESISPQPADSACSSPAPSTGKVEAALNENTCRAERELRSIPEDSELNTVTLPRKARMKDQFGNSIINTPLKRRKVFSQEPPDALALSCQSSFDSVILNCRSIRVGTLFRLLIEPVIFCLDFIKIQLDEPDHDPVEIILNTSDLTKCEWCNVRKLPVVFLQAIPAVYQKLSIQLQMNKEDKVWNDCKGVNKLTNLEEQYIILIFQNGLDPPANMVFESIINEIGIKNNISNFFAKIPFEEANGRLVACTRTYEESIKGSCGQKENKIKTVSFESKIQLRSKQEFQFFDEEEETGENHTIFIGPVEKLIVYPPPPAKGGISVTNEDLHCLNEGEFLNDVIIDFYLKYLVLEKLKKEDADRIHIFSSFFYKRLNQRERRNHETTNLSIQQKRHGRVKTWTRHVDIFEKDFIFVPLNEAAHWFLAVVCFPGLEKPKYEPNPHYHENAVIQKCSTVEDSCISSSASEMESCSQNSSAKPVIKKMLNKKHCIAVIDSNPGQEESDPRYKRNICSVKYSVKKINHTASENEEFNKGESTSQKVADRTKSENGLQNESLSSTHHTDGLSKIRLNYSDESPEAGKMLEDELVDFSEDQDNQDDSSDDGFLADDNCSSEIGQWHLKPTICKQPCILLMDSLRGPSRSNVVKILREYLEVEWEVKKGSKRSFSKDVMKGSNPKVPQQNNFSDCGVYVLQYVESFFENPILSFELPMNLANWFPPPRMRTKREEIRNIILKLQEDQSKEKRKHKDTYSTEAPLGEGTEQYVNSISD

[8] = molecular target: T4, Sentrin-specific protease 7 (Homo sapiens, UniProt Q9BQF6); assay: SENP7 protease inhibitors, SAR follow-up, biochemical, luminescence, set 2 (AID 588600); format: functional
T4 sequence (Q9BQF6 whole entry): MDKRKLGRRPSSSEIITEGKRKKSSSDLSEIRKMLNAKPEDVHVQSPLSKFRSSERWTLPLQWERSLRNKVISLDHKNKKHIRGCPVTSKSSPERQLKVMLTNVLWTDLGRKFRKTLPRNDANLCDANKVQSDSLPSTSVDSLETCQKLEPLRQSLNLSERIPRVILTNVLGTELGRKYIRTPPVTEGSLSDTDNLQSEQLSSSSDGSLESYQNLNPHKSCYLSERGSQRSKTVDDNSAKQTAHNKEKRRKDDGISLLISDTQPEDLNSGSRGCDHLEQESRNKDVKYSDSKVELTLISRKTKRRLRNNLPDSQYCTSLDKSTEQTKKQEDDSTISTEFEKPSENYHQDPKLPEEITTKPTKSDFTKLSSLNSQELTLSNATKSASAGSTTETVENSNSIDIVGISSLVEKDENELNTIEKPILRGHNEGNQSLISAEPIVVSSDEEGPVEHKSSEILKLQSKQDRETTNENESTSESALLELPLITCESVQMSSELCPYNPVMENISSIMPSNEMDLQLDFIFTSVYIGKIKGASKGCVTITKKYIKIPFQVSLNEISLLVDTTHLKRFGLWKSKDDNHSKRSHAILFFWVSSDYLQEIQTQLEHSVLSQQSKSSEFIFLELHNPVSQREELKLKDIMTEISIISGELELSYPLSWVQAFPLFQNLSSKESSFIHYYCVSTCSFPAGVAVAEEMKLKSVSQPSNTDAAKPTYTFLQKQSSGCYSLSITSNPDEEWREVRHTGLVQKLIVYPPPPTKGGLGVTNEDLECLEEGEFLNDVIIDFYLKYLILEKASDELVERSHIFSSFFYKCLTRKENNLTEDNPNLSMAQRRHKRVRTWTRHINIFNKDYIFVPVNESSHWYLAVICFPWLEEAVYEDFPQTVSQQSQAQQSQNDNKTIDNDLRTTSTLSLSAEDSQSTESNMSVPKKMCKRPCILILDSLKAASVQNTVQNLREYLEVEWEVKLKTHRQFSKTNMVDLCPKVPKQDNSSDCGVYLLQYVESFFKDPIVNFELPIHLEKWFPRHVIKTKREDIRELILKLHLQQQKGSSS

[9] = molecular target: T5, Caspase-3 (Homo sapiens, UniProt P42574); assay: caspase-3 inhibitors as off-family protease, SAR follow-up, selectivity assay for SENP protease inhibitor project, biochemical, luminescence, set 2 (AID 588599); format: functional
T5 sequence (P42574 whole entry): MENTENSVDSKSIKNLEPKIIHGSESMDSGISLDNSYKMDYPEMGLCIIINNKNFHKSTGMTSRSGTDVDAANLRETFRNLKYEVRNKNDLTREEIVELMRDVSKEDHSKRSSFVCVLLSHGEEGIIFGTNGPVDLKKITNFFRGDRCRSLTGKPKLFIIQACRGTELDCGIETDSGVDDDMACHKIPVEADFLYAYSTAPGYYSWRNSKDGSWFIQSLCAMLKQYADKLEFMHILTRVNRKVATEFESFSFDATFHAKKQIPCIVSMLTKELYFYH

[10] = molecular target: T6, Sentrin-specific protease 8 (Homo sapiens, UniProt Q96LD8); assay: SENP8 protease inhibitors, SAR follow-up, biochemical, luminescence, set 2 (AID 588601); format: functional
T6 sequence (Q96LD8 whole entry): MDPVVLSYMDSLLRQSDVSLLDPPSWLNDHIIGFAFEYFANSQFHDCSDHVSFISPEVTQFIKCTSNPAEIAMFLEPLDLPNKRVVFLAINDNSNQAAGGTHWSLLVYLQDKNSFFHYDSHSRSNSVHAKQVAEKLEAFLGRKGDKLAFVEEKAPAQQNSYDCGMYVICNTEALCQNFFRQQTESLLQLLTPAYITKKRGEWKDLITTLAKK

[11] = CAL PDZ domain peptide-binding inhibitors, dose response, biochemical, fluorescence polarization, untagged CAL PDZ, cherry-pick, set 2 (AID 602254); format: functional
[12] = molecular target: T1, Melanocortin receptor 4; format: functional, cell-based
[13] = molecular target: T7, Alkaline phosphatase, tissue-nonspecific isozyme (Homo sapiens, UniProt P05186); assay: TNAP enzyme inhibition by screening hits, dose response, selectivity assay for mouse IAP inhibitor project, biochemical, human TNAP, uHTS hits (AID 488906); format: functional
T7 sequence (P05186 whole entry): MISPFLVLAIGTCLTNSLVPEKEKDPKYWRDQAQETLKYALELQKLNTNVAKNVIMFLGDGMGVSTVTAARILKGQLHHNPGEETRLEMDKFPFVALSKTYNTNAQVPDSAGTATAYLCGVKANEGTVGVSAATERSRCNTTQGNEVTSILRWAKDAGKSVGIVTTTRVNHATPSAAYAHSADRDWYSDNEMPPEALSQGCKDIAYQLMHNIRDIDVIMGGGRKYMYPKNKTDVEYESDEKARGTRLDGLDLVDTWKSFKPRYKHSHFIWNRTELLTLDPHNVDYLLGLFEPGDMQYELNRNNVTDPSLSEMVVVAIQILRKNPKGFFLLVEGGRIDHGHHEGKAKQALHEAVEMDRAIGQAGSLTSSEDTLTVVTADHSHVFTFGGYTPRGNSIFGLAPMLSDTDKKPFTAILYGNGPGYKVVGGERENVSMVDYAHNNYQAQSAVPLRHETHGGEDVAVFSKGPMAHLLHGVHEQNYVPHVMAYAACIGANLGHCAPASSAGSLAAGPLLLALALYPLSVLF

[14] = molecular target: T8, Ubiquitin-conjugating enzyme E2 N (Homo sapiens, UniProt P61088); format: functional
T8 sequence (P61088 whole entry): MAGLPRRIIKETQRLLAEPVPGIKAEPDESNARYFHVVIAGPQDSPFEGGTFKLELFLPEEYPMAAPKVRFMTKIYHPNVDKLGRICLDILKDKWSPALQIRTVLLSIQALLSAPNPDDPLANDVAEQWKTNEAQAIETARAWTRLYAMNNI

[15] = molecular target: Intestinal-type alkaline phosphatase (Homo sapiens, UniProt P09923); assay: inhibition of human intestinal alkaline phosphatase – biochemical, dose response (AID 488876); format: functional
[16] = molecular target: T8, Ubiquitin-conjugating enzyme E2 N; format: functional; remark: listed apart in the source
[17] = molecular target: Intestinal-type alkaline phosphatase (Mus musculus, UniProt P24822); assay: PubChem AID 488785; format: functional
[18] = molecular target: T9, Bcl-2-related protein A1 (Mus musculus, UniProt Q07440); format: functional;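 note: confirmatory dose–response counterscreen on Bfl-1, used to check hits from a UBC13 polyubiquitin inhibitor campaign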
T9 sequence (Q07440 whole entry): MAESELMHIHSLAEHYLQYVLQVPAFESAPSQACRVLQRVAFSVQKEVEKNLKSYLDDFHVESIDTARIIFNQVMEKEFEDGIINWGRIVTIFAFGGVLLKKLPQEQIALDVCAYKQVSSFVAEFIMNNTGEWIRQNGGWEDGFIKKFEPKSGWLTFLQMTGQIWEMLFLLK

T1 sequence (P32245 whole entry): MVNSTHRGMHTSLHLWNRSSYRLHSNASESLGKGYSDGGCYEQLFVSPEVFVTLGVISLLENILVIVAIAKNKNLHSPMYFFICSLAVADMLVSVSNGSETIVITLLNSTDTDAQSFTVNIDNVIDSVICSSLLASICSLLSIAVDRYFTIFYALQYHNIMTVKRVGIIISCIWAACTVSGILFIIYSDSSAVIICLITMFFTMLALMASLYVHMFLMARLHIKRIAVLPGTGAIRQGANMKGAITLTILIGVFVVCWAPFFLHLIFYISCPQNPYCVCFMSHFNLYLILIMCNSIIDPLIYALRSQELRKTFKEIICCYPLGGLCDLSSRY
Intestinal-type alkaline phosphatase (Mus musculus, UniProt P24822), sequence (P24822 whole entry): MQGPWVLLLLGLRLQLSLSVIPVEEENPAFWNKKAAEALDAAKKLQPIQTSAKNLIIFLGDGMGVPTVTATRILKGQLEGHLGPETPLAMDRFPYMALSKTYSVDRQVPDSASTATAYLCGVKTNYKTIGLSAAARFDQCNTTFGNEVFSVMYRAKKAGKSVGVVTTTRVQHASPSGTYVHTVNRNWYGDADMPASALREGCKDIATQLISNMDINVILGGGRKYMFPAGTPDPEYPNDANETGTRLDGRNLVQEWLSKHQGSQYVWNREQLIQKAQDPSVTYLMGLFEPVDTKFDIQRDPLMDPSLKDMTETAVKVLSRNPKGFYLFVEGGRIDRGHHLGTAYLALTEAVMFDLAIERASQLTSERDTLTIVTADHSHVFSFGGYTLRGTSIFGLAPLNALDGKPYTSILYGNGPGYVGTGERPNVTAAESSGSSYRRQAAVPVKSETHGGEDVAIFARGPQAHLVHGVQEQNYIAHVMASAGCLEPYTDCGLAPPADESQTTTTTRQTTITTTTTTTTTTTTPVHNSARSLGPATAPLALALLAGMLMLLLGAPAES
Intestinal-type alkaline phosphatase (Homo sapiens, UniProt P09923), sequence (P09923 whole entry): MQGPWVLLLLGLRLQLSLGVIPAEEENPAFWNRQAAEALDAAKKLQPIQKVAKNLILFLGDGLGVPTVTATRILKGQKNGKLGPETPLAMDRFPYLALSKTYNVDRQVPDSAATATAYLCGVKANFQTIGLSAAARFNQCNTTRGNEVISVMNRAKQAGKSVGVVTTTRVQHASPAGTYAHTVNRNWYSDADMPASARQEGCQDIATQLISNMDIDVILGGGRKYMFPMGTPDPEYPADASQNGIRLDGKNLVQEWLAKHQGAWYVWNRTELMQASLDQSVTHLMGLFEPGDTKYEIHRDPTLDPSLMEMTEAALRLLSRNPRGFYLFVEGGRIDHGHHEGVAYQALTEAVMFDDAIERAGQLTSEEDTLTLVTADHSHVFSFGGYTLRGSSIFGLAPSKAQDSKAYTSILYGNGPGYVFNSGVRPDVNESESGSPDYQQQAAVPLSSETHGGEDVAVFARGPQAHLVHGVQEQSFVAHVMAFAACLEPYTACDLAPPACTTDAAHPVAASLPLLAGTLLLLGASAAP

Cc1ccc(-c2nn(-c3ccccc3)cc2NC(=O)CCl)cc1
IC50 [1]: > 64.6 µM (inactive)
IC50 [2]: > 7.18 µM (active)

CCN(CC)CCNC(=O)C[S+]([O-])Cc1nc(-c2ccccc2Cl)oc1C (configuration not stated)
EC50 [3]: > 54.7 µM (inactive)
EC50 [4]: > 54.7 µM (inactive)
IC50 [5]: > 89.2 µM (inactive)
EC50 [6]: > 55.9 µM (inactive)

Cc1[nH]c2ccccc2c1C(=O)C(=O)NCc1cc(-c2cc3ccccc3o2)on1
IC50 [7]: > 99 µM (inactive)
IC50 [8]: > 99 µM (inactive)
IC50 [9]: > 99 µM (inactive)
IC50 [10]: > 99 µM (inactive)

Cc1ccc(-c2nc(C)sc2CC(=O)OCC(=O)Nc2ccc(F)c(Cl)c2)cc1
AC50 [11]: 110 µM (active)

Cc1ccc(C(=O)Nc2nc(C(N)Cc3ccc(C(F)(F)F)cc3)cs2)cc1 (configuration not stated)
EC50 [12]: > 89.2 µM (inactive)

C#CCOCCOCCOCCNc1nc(N2CCN(C(=O)CCCCCCCCCCNC(=O)Cn3cc(CCCCCN)nn3)CC2)nc(N2CCN(C(=O)CCCCCCCCCCNC(=O)[C@@H](CCSC)n3cc(CCO)nn3)CC2)n1
EC50 [3]: > 54.7 µM (inactive)
IC50 [13]: > 100 µM (inactive)
EC50 [4]: > 6.08 µM (active)
IC50 [5]: 14.5 µM (inactive)
IC50 [14]: 4.6 µM (active)
IC50 [15]: > 100 µM (inactive)
IC50 [16]: 6.59 µM (active)
EC50 [6]: > 54.7 µM (inactive)
IC50 [17]: 6.92 µM (active)
IC50 [18]: 18.5 µM (active)
